Laboratory results reported in PubChem BioAssay AID1963979 (Molecular Pharmacology Branch, DTP, NCI, 2024).

Test system: 361931-004-R-J1-PDC multicell spheroid viability
Experiment: Anticancer human tumor 361931-004-R-J1-PDC patient-derived colon adenocarcinoma cell line growth inhibition [PI3K]
Conditions: for IC50: curve of first compound; for viability, T/C: stronger effect = lower value
Procedure, shortened: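 We assembled tumor spheroids that included a stromal compartment of HUVEC and MSCs, then exposed them to targeted agents alone and together with PI3K pathway inhibitors. Concentration series descended by half-log from clinically achievable Cmax levels. Viability served as the endpoint.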

[1] = second compound 0.0316 µM, first compound 0.0316 µM
[2] = second compound 0.0316 µM, first compound 0.1 µM
[3] = second compound 0.0316 µM, first compound 0.316 µM
[4] = second compound 0.0316 µM, first compound 1 µM
[5] = second compound 0.0316 µM, first compound 3.16 µM
[6] = second compound 0.0316 µM, first compound 10 µM
[7] = second compound 0.1 µM, first compound 0.0316 µM
[8] = second compound 0.1 µM, first compound 0.1 µM
[9] = second compound 0.1 µM, first compound 0.316 µM
[10] = second compound 0.1 µM, first compound 1 µM
[11] = second compound 0.1 µM, first compound 3.16 µM
[12] = second compound 0.1 µM, first compound 10 µM
[13] = second compound 0.316 µM, first compound 0.0316 µM
[14] = second compound 0.316 µM, first compound 0.1 µM
[15] = second compound 0.316 µM, first compound 0.316 µM
[16] = second compound 0.316 µM, first compound 1 µM
[17] = second compound 0.316 µM, first compound 3.16 µM
[18] = second compound 0.316 µM, first compound 10 µM
[19] = second compound 1 µM, first compound 0.0316 µM
[20] = second compound 1 µM, first compound 0.1 µM
[21] = second compound 1 µM, first compound 0.316 µM
[22] = second compound 1 µM, first compound 1 µM
[23] = second compound 1 µM, first compound 3.16 µM
[24] = second compound 1 µM, first compound 10 µM
[25] = second compound 3.16 µM, first compound 0.0316 µM
[26] = second compound 3.16 µM, first compound 0.1 µM
[27] = second compound 3.16 µM, first compound 0.316 µM
[28] = second compound 3.16 µM, first compound 1 µM
[29] = second compound 3.16 µM, first compound 3.16 µM
[30] = second compound 3.16 µM, first compound 10 µM
[31] = second compound 10 µM, first compound 0.0316 µM
[32] = second compound 10 µM, first compound 0.1 µM
[33] = second compound 10 µM, first compound 0.316 µM
[34] = second compound 10 µM, first compound 1 µM
[35] = second compound 10 µM, first compound 3.16 µM
[36] = second compound 10 µM, first compound 10 µM
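Note: spheroids exposed to agents for seven days before readout.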

C#Cc1c(F)ccc2cc(O)cc(-c3ncc4c(N5CC6CCC(C5)N6)nc(OCC56CCCN5CC(F)C6)nc4c3F)c12 (stereo not drawn) + CC(Nc1ncnc2nc[nH]c12)c1cc2cccc(Cl)c2c(=O)n1-c1ccccc1
IC50 (second compound 0.0316 µM): > 10 µM | IC50 (second compound 0.1 µM): > 10 µM | IC50 (second compound 0.316 µM): > 10 µM | IC50 (second compound 1 µM): > 10 µM | IC50 (second compound 3.16 µM): > 10 µM | IC50 (second compound 10 µM): > 10 µM | viability, T/C [1]: 98.8% | viability, T/C [2]: 105% | viability, T/C [3]: 105% | viability, T/C [4]: 102% | viability, T/C [5]: 98.9% | viability, T/C [6]: 95.1% | viability, T/C [7]: 105% | viability, T/C [8]: 103% | viability, T/C [9]: 96.8% | viability, T/C [10]: 100% | viability, T/C [11]: 104% | viability, T/C [12]: 93% | viability, T/C [13]: 106% | viability, T/C [14]: 99.7% | viability, T/C [15]: 105% | viability, T/C [16]: 100% | viability, T/C [17]: 102% | viability, T/C [18]: 93.3% | viability, T/C [19]: 97.7% | viability, T/C [20]: 98.6% | viability, T/C [21]: 100% | viability, T/C [22]: 95.2% | viability, T/C [23]: 104% | viability, T/C [24]: 84.4% | viability, T/C [25]: 104% | viability, T/C [26]: 107% | viability, T/C [27]: 103% | viability, T/C [28]: 106% | viability, T/C [29]: 107% | viability, T/C [30]: 81.9% | viability, T/C [31]: 104% | viability, T/C [32]: 99.8% | viability, T/C [33]: 91.9% | viability, T/C [34]: 91% | viability, T/C [35]: 90% | viability, T/C [36]: 79%

CC1(C)CCC(Nc2ncc(C(F)(F)F)c(-c3c[nH]c4c(P(C)(C)=O)c(C#N)ccc34)n2)CN1 (stereo not drawn) + CC(Nc1ncnc2nc[nH]c12)c1cc2cccc(Cl)c2c(=O)n1-c1ccccc1
IC50 (second compound 0.0316 µM): 6.27 µM | IC50 (second compound 0.1 µM): 5.92 µM | IC50 (second compound 0.316 µM): 5.95 µM | IC50 (second compound 1 µM): 5.58 µM | IC50 (second compound 3.16 µM): 5.2 µM | IC50 (second compound 10 µM): 4.73 µM | viability, T/C [1]: 106% | viability, T/C [2]: 108% | viability, T/C [3]: 104% | viability, T/C [4]: 101% | viability, T/C [5]: 103% | viability, T/C [6]: 13.7% | viability, T/C [7]: 122% | viability, T/C [8]: 103% | viability, T/C [9]: 96% | viability, T/C [10]: 101% | viability, T/C [11]: 93.4% | viability, T/C [12]: 14.5% | viability, T/C [13]: 108% | viability, T/C [14]: 106% | viability, T/C [15]: 99.4% | viability, T/C [16]: 98% | viability, T/C [17]: 95.8% | viability, T/C [18]: 12.4% | viability, T/C [19]: 110% | viability, T/C [20]: 101% | viability, T/C [21]: 98.8% | viability, T/C [22]: 98.4% | viability, T/C [23]: 86.9% | viability, T/C [24]: 12.8% | viability, T/C [25]: 105% | viability, T/C [26]: 94.9% | viability, T/C [27]: 95.8% | viability, T/C [28]: 94.1% | viability, T/C [29]: 80.6% | viability, T/C [30]: 10.6% | viability, T/C [31]: 93.1% | viability, T/C [32]: 90.8% | viability, T/C [33]: 88.9% | viability, T/C [34]: 88% | viability, T/C [35]: 74% | viability, T/C [36]: 5.6%

CNC(=O)c1ccc(N2C(=S)N(c3ccc(C#N)c(C(F)(F)F)c3)C(=O)C2(C)C)cc1F + COc1c(OCCCN2CCOCC2)ccc2c3n(c(=NC(=O)c4cnc(N)nc4)nc12)CCN3
IC50 (second compound 0.00316 µM): > 10 µM | IC50 (second compound 0.01 µM): > 10 µM | IC50 (second compound 0.0316 µM): > 10 µM | IC50 (second compound 0.1 µM): > 10 µM | IC50 (second compound 0.316 µM): 3.98 µM | IC50 (second compound 1 µM): < 0.0316 µM | viability, T/C (second compound 0.00316 µM, first compound 0.0316 µM): 103% | viability, T/C (second compound 0.00316 µM, first compound 0.1 µM): 102% | viability, T/C (second compound 0.00316 µM, first compound 0.316 µM): 97.6% | viability, T/C (second compound 0.00316 µM, first compound 1 µM): 103% | viability, T/C (second compound 0.00316 µM, first compound 3.16 µM): 105% | viability, T/C (second compound 0.00316 µM, first compound 10 µM): 88.5% | viability, T/C (second compound 0.01 µM, first compound 0.0316 µM): 95.5% | viability, T/C (second compound 0.01 µM, first compound 0.1 µM): 101% | viability, T/C (second compound 0.01 µM, first compound 0.316 µM): 98.8% | viability, T/C (second compound 0.01 µM, first compound 1 µM): 98.2% | viability, T/C (second compound 0.01 µM, first compound 3.16 µM): 98.7% | viability, T/C (second compound 0.01 µM, first compound 10 µM): 86.2% | viability, T/C [1]: 83.6% | viability, T/C [2]: 92.3% | viability, T/C [3]: 91.7% | viability, T/C [4]: 90% | viability, T/C [5]: 95.7% | viability, T/C [6]: 88.4% | viability, T/C [7]: 81.1% | viability, T/C [8]: 82.5% | viability, T/C [9]: 76.1% | viability, T/C [10]: 81.5% | viability, T/C [11]: 86.1% | viability, T/C [12]: 65.8% | viability, T/C [13]: 56.2% | viability, T/C [14]: 53% | viability, T/C [15]: 54.1% | viability, T/C [16]: 57.5% | viability, T/C [17]: 52.8% | viability, T/C [18]: 36.7% | viability, T/C [19]: 28.7% | viability, T/C [20]: 22.2% | viability, T/C [21]: 22.7% | viability, T/C [22]: 26.8% | viability, T/C [23]: 26.5% | viability, T/C [24]: 17.1%

Cn1cnc2c(F)c(Nc3ccc(Br)cc3Cl)c(C(=O)NOCCO)cc21 + COc1c(OCCCN2CCOCC2)ccc2c3n(c(=NC(=O)c4cnc(N)nc4)nc12)CCN3
IC50 (second compound 0.00316 µM): > 3 µM | IC50 (second compound 0.01 µM): 1.95 µM | IC50 (second compound 0.0316 µM): 0.718 µM | IC50 (second compound 0.1 µM): 0.156 µM | IC50 (second compound 0.316 µM): 0.0114 µM | IC50 (second compound 1 µM): < 0.00949 µM | viability, T/C (second compound 0.00316 µM, first compound 0.00949 µM): 104% | viability, T/C (second compound 0.00316 µM, first compound 0.03 µM): 99.9% | viability, T/C (second compound 0.00316 µM, first compound 0.0949 µM): 92.1% | viability, T/C (second compound 0.00316 µM, first compound 0.3 µM): 86.6% | viability, T/C (second compound 0.00316 µM, first compound 0.949 µM): 75.6% | viability, T/C (second compound 0.00316 µM, first compound 3 µM): 57.5% | viability, T/C (second compound 0.01 µM, first compound 0.00949 µM): 107% | viability, T/C (second compound 0.01 µM, first compound 0.03 µM): 101% | viability, T/C (second compound 0.01 µM, first compound 0.0949 µM): 88.6% | viability, T/C (second compound 0.01 µM, first compound 0.3 µM): 85.6% | viability, T/C (second compound 0.01 µM, first compound 0.949 µM): 69% | viability, T/C (second compound 0.01 µM, first compound 3 µM): 38.7% | viability, T/C (second compound 0.0316 µM, first compound 0.00949 µM): 102% | viability, T/C (second compound 0.0316 µM, first compound 0.03 µM): 93% | viability, T/C (second compound 0.0316 µM, first compound 0.0949 µM): 81% | viability, T/C (second compound 0.0316 µM, first compound 0.3 µM): 67.2% | viability, T/C (second compound 0.0316 µM, first compound 0.949 µM): 45.3% | viability, T/C (second compound 0.0316 µM, first compound 3 µM): 16% | viability, T/C (second compound 0.1 µM, first compound 0.00949 µM): 81.5% | viability, T/C (second compound 0.1 µM, first compound 0.03 µM): 69.3% | viability, T/C (second compound 0.1 µM, first compound 0.0949 µM): 55.4% | viability, T/C (second compound 0.1 µM, first compound 0.3 µM): 43.1% | viability, T/C (second compound 0.1 µM, first compound 0.949 µM): 23.9% | viability, T/C (second compound 0.1 µM, first compound 3 µM): 3.88% | viability, T/C (second compound 0.316 µM, first compound 0.00949 µM): 50.8% | viability, T/C (second compound 0.316 µM, first compound 0.03 µM): 44.9% | viability, T/C (second compound 0.316 µM, first compound 0.0949 µM): 28.9% | viability, T/C (second compound 0.316 µM, first compound 0.3 µM): 18% | viability, T/C (second compound 0.316 µM, first compound 0.949 µM): 4.2% | viability, T/C (second compound 0.316 µM, first compound 3 µM): 1.79% | viability, T/C (second compound 1 µM, first compound 0.00949 µM): 21.7% | viability, T/C (second compound 1 µM, first compound 0.03 µM): 17.9% | viability, T/C (second compound 1 µM, first compound 0.0949 µM): 10.1% | viability, T/C (second compound 1 µM, first compound 0.3 µM): 3.9% | viability, T/C (second compound 1 µM, first compound 0.949 µM): 2.04% | viability, T/C (second compound 1 µM, first compound 3 µM): 1.34%
